Experimental findings from EP4663632A1, “COMPOUNDS USEFUL FOR THE MODULATION OF THE ACTIVITY OF STING” (Sulis Therapeutics ApS, priority 2024, dated 2025) are described below.

For assay [1], the target named is C-terminal domain (CTD) of human STING (Homo sapiens, UniProt Q86WV6). The assay can be described thus: STING binding FP assay II. The arrangement: recombinant human STING protein (155-379). As to conditions: 7 nM STING.
The target of assay [2] is STING (Homo sapiens, UniProt Q86WV6). The assay can be described thus: Inhibition of STING-agonist-induced IFN-β release in HFF-1 cells (HFF-1 STING inhibition assay). It counts as cell-based. Set-up: host or cells: HFF-1 human foreskin fibroblasts. The conditions noted are these: 24h with compound, then 0.3 µM diABZI c3, 6h; ELISA. On the procedure:
To evaluate cellular effects of test compounds, we assessed inhibition of STING-agonist-induced IFN-β release in human foreskin fibroblasts HFF-1 cells (ATCC, SCRC-1041). Cells were seeded at a density of 10.000 cells/well in 96-well Nunclon Delta surface treated culture plate in DMEM growth medium (supplemented with 10% FBS, 1% Pen-strep). Cells were incubated over-night at 37°C 5% CO2 to allow adhesion. Next morning growth medium was renewed and a 7x concentration 3-step dilution series of test compounds (2,1% DMSO) diluted in growth medium were added to the appropriate well. Final DMSO concentration was 0.3%. […] Cells culture plates were further incubated, and supernatants were harvested after 6h and immediately stored at -20°C until determination of IFN-β release. Cell supernatants were analysed for IFN-β release using DuoSet human IFN-β ELISA (R&D systems, DY-814) following manufactures protocol except using 96-well, half-volume plates from Corning and subsequently use half volume for all steps throughout the protocol. In brief, plates were coated o/n with a 130x dilution of capturing antibody in PBS. Wells were washed 3x with PBS-T20 followed by blocking with 1% BSA diluted in TBS-T20 for 1h. […] Wells were washed 3x with PBS-T20 and detection antibody diluted 1:60 in 1% BSA in PBS was added to each well and incubated for 2h at rt. […]
On the technique in general: An ELISA detects its analyte on a solid surface through an enzyme-linked reagent.

The target of assay [3] is T1, STING (Mus musculus, UniProt Q3TBT3).
T1 sequence (Q3TBT3 1-378): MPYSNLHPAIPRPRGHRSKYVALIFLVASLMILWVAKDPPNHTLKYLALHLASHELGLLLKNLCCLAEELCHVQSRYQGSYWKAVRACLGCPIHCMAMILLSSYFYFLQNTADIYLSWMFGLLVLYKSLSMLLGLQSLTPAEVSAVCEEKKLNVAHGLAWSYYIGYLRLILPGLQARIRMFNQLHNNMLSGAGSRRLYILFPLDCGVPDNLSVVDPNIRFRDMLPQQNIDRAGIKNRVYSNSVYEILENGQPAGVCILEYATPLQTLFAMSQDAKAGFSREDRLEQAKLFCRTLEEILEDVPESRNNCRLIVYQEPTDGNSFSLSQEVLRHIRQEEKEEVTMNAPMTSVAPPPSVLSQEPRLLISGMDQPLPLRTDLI
The experiment in a line: IFN-β secretion from mouse RAW264.7 cells treated with diABZI. It counts as cell-based. The arrangement: endogenous in cells; host or cells: RAW264.7 mouse cells. The conditions noted are these: 1.8 µM diABZI c3 and 0.05 µM Example compound. As to the method:
As expected, RAW264.7 cells treated with 1.8 µM diABZI c3 increased IFN-β secretion, resulting in a media concentration of around 1000 pg/mL. In contrast, cells treated with 1.8 µM diABZI c3 and 0.05 µM Example compounds 14, 16 or 24 reduced this expression to approximately 500 pg/mL.

C-terminal domain (CTD) of human STING, sequence (Q86WV6 155-379): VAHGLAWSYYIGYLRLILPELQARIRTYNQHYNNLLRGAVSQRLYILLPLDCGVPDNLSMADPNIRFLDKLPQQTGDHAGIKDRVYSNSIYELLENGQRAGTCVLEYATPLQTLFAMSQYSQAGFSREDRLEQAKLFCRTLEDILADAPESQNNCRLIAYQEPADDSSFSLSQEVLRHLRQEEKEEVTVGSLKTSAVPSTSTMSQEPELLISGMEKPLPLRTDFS
STING (Homo sapiens, UniProt Q86WV6), sequence (Q86WV6 whole entry): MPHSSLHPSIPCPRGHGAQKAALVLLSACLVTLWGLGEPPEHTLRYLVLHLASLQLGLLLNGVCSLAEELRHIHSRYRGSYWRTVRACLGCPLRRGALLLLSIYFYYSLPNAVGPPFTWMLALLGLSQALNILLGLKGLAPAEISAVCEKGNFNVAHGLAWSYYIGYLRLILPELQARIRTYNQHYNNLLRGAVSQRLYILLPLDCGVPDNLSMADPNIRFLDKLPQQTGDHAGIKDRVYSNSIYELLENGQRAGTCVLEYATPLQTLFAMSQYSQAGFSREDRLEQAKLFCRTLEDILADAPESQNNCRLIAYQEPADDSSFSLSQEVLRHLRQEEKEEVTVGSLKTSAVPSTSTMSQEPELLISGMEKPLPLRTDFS

In the case of `CCn1nc(C)cc1C(=O)N=c1n(C)c2cc(C(N)=O)ccc2n1CCC(CCn1c(=NC(=O)c2cc(C)nn2CC)n(C)c2cc(C(N)=O)ccc21)OCC(=O)NCCOCCOCCOCCOCCC(=O)NCCOCCOCCOCCOCC(=O)N[C@H](C(=O)N1C[C@H](O)C[C@H]1C(=O)NCc1ccc(-c2scnc2C)cc1)C(C)(C)C` (stereo partly drawn) [Example 14], the 50% inhibitory concentration (IC50) in assay [1] came out at 5.7 nM. For the same molecule, the 50% effective concentration (EC50) in assay [2] was 1000 to 5000 nM. Moreover, the IFN-β media concentration result in assay [3] was “approximately 500 pg/mL”.

For the molecule `CCn1nc(C)cc1C(=O)N=c1n(C)c2cc(C(N)=O)ccc2n1CCC(CCn1c(=NC(=O)c2cc(C)nn2CC)n(C)c2cc(C(N)=O)ccc21)OCC(=O)NCCOCCOCCOCCOCCC(=O)NCCOCCOCCOCCOCCNc1cccc2c1C(=O)N(C1CCC(=O)NC1=O)C2=O` (stereo not drawn) [Example 16], in assay [1], the 50% inhibitory concentration (IC50) turned out to be 4.5 nM. For the same molecule, the EC50 in assay [2] was less than 200 nM. Further, the IFN-β media concentration entry in assay [3] is given as “approximately 500 pg/mL”.

What is called IC50 is the concentration that inhibits the measured activity by half. Usually EC50 stands for the concentration needed to bring the measured effect to its halfway point.
